In patent US20070128217A1 (priority 2003, published 2007):

Legend:
[1] = system: antibodies in sera from SARS patients (sera 1a, 1b, 2, 6, 37, 62, London, SARS-yellow, SARS-green); format: binding, human; set-up: Binding of serum 6 to linear peptides of protein X1 of SARS-CoV Urbani / Binding of serum 37 to linear peptides of protein X1 of SARS-CoV Urbani / Binding of serum 6 to looped/cyclic peptide (PEPSCAN-ELISA) / Binding of serum 37 to looped/cyclic peptide (PEPSCAN-ELISA) / Binding of serum 37 to looped/cyclic peptides of protein X1 of SARS-CoV Urbani / Binding of serum 6 to linear peptides of protein X2 / Binding of serum 37 to linear peptides of protein X2 / Binding of serum 37 to looped/cyclic peptides of protein X2 of SARS-CoV Urbani / Binding of serum 6 to linear peptides of protein M of SARS-CoV Urbani / Binding of serum 37 to linear peptides of protein M of SARS-CoV Urbani / Binding of serum 6 to looped/cyclic peptides of protein M of SARS-CoV Urbani / Binding of serum 37 to looped/cyclic peptides of protein M of SARS-CoV Urbani / Binding of serum 6 to linear peptides of protein X3 of SARS-CoV Urbani / Binding of serum 37 to linear peptides of protein X3 of SARS-CoV Urbani / Binding of serum 37 to looped/cyclic peptides of protein X3 of SARS-CoV Urbani / Binding of serum 6 to linear peptides of protein X4 of SARS-CoV Urbani / Binding of serum 37 to linear peptides of protein X4 of SARS-CoV Urbani / Binding of serum 37 to looped/cyclic peptides of protein X4 of SARS-CoV Urbani / Binding of serum 6 to linear peptides of protein X5 of SARS-CoV Urbani / Binding of serum 37 to linear peptides of protein X5 of SARS-CoV Urbani / Binding of serum 37 to looped/cyclic peptides of protein X5 of SARS-CoV Urbani / Binding of serum 6 to linear peptides of protein N of SARS-CoV Urbani / Binding of serum 37 to linear peptides of protein N of SARS-CoV Urbani / Binding of serum 6 to linear peptide (PEPSCAN-ELISA) / Binding of serum 1a to looped/cyclic peptides of protein N of SARS-CoV Urbani / Binding of serum 1b to looped/cyclic peptides of protein N of SARS-CoV Urbani / Binding of serum 2 to looped/cyclic peptides of protein N of SARS-CoV Urbani / Binding of serum 6 to looped/cyclic peptides of protein N of SARS-CoV Urbani / Binding of serum 37 to looped/cyclic peptides of protein N of SARS-CoV Urbani / Binding of serum 62 to looped/cyclic peptides of protein N of SARS-CoV Urbani / Binding of serum London to looped/cyclic peptides of protein N of SARS-CoV Urbani / Binding of serum SARS-green to looped/cyclic peptides of protein N of SARS-CoV Urbani: unit not given here
[2] = system: control sera (pooled serum of ten healthy LUMC hospital workers; commercial negative donor pooled serum from the Dutch bloodbank); format: binding, human; set-up: Binding of Control serum LUMC to linear peptides / Binding of Control serum Blood-bank to linear peptides / Binding of Control serum LUMC to looped peptides / Binding of Control Serum Blood-Bank to Looped peptides / Binding of Control serum LUMC to linear peptides of the protein M of SARS-CoV Urbani / Binding of Control serum Blood-bank to linear peptides of the protein M of SARS-CoV Urbani / Binding of Control serum LUMC to looped peptides of the protein M of SARS-CoV Urbani / Binding of Control Serum Blood-Bank to Looped peptides of the protein M of SARS-CoV Urbani: unit not given here
[3] = system: rabbit serum obtained by immunizing a rabbit with the SARS-CoV strain Frankfurt 1; format: binding; set-up: Binding of a rabbit serum to linear peptides / Binding of a rabbit serum to looped peptides / Rabbit serum linear peptides / Rabbit serum looped peptides / Binding of a rabbit serum to linear peptides of protein N of SARS-CoV Urbani (Rabbit serum linear peptides) / Binding of a rabbit serum to looped/cyclic peptides of protein N of SARS-CoV Urbani (Rabbit serum looped peptides): unit not given here

## ETNILLNVPLRGTIV
[1]
  Binding of serum 1a to linear peptides of protein M of SARS-CoV Urbani: 0.7
  Binding of serum 1a to looped/cyclic peptides of protein M of SARS-CoV Urbani: 0.5
  Binding of serum 1b to linear peptides of protein M of SARS-CoV Urbani: 0.5
  Binding of serum 1b to looped/cyclic peptides of protein M of SARS-CoV Urbani: 0.6
  Binding of serum 2 to linear peptides of protein M of SARS-CoV Urbani: 0.5
  Binding of serum 2 to looped/cyclic peptides of protein M of SARS-CoV Urbani: 0.7
  Binding of serum 6 to linear peptides of protein M of SARS-CoV Urbani: 0.4
  Binding of serum 6 to looped/cyclic peptides of protein M of SARS-CoV Urbani: 0.8
  Binding of serum 37 to linear peptides of protein M of SARS-CoV Urbani: 0.6
  Binding of serum 37 to looped/cyclic peptides of protein M of SARS-CoV Urbani: 0.4
  Binding of serum 62 to linear peptides of protein M of SARS-CoV Urbani: 0.7
  Binding of serum 62 to looped/cyclic peptides of protein M of SARS-CoV Urbani: 0.5
  Binding of serum London to linear peptides of protein M of SARS-CoV Urbani: 0.4
  Binding of serum London to looped/cyclic peptides of protein M of SARS-CoV Urbani: 0.2
  Binding of serum SARS-green to linear peptides of protein M of SARS-CoV Urbani: 0.3
  Binding of serum SARS-green to looped/cyclic peptides of protein M of SARS-CoV Urbani: 0.2
  Binding of serum SARS-yellow to linear peptides of protein M of SARS-CoV Urbani: 0.1
  Binding of serum SARS-yellow to looped/cyclic peptides of protein M of SARS-CoV Urbani: 0.5
[2]
  Binding of Control Serum Blood-Bank to Looped peptides of the protein M of SARS-CoV Urbani: 1.0
  Binding of Control serum Blood-bank to linear peptides of the protein M of SARS-CoV Urbani: 0.7
  Binding of Control serum LUMC to linear peptides of the protein M of SARS-CoV Urbani: 0.3
  Binding of Control serum LUMC to looped peptides of the protein M of SARS-CoV Urbani: 0.9
[3]
  Rabbit serum linear peptides: 0.5
  Rabbit serum looped peptides: 0.0

## EVYYQLESTQITTDT
[1]
  Binding of serum 1a to linear peptides of protein X1 of SARS-CoV Urbani: 0.7
  Binding of serum 1a to looped/cyclic peptides of protein X1 of SARS-CoV Urbani: 0.5
  Binding of serum 1b to linear peptides of protein X1 of SARS-CoV Urbani: 0.6
  Binding of serum 1b to looped/cyclic peptides of protein X1 of SARS-CoV Urbani: 0.4
  Binding of serum 2 to linear peptides of protein X1 of SARS-CoV Urbani: 0.4
  Binding of serum 2 to looped/cyclic peptides of protein X1 of SARS-CoV Urbani: 0.1
  Binding of serum 6 to linear peptides of protein X1 of SARS-CoV Urbani: 0.5
  Binding of serum 6 to looped/cyclic peptides of protein X1 of SARS-CoV Urbani: 0.2
  Binding of serum 37 to linear peptides of protein X1 of SARS-CoV Urbani: 0.7
  Binding of serum 37 to looped/cyclic peptides of protein X1 of SARS-CoV Urbani: 0.5
  Binding of serum 62 to linear peptides of protein X1 of SARS-CoV Urbani: 0.4
  Binding of serum 62 to looped/cyclic peptides of protein X1 of SARS-CoV Urbani: 0.5
  Binding of serum London to linear peptides of protein X1 of SARS-CoV Urbani: 0.3
  Binding of serum London to looped/cyclic peptides of protein X1 of SARS-CoV Urbani: 0.2
  Binding of serum SARS-green to linear peptides of protein X1 of SARS-CoV Urbani: 0.2
  Binding of serum SARS-green to looped/cyclic peptides of protein X1 of SARS-CoV Urbani: 0.3
  Binding of serum SARS-yellow to linear peptides of protein X1 of SARS-CoV Urbani: 0.3
  Binding of serum SARS-yellow to looped/cyclic peptides of protein X1 of SARS-CoV Urbani: 0.3
[2]
  Binding of Control Serum Blood-Bank to Looped peptides: 0.5
  Binding of Control serum Blood-bank to linear peptides: 0.4
  Binding of Control serum LUMC to linear peptides: 0.4
  Binding of Control serum LUMC to looped peptides: 0.4
[3]
  Binding of a rabbit serum to linear peptides: 0.1
  Binding of a rabbit serum to looped peptides: 0.4
